The text below walks through data of patent US8778923B2, “GLP-1 receptor modulators” (Receptos, Inc., priority 2011, dated 2014).

As usually defined, the pEC50 is the EC50 on a negative log10 scale, so that one unit is a factor of ten.

SMILES strings stand for the structures. pEC50: −log10 of the molar value.

In this assay the target is T1, GLP-1R (Homo sapiens, UniProt P43220).
T1 construct: host or cells: CRE-bla CHO-K1
Nature of the assay: EC20 GLP-1(9-36) PAM cAMP assay: dose response of compound in the presence of fixed concentration of GLP-1(9-36). Format: cell-based. The conditions noted are these: GLP-1R CRE-bla CHO-K1 cells, compound dose response in presence of fixed concentration of GLP-1(9-36). On the procedure:
EC20 GLP-1(9-36) PAM cAMP Assay: Dose Response of Compound in the Presence of Fixed Concentration of GLP-1 (9-36).
GLP-1R CRE-bla CHO-K1 cells cultured in growth medium (DMEM-High glucose, 10% dialyzed FBS, 0.1 mM NEAA, 25 mM Hepes, 100 U/mL penicillin/100 μg/mL streptomycin, 5 μg/mL Blasticidin, 600 μg/mL Hygromycin) were tryspsinized and plated in suspension into 384 well white flat bottom plates at 5000 cells/well in 12 μL assay buffer (Hanks Balanced Salt solution, 10 mM Hepes, 0.1% BSA, pH 7.4). A 5× compound dose response curve (12-point) was generated in assay buffer containing 1.5 mM IBMX, 12.5% DMSO. GLP-1(9-36) was diluted to 4.2 μM in assay buffer containing 1.5 mM IBMX and 12.5% DMSO. The 5× compound dose response was added (3 μL), followed by 0.5 μL of GLP-1(9-36) and cells were incubated for 30 min at 37° C. Direct detection of cAMP was carried out using DiscoveRx HitHunter cAMP kit according to manufacturer's instructions and luminescence was read using a SpectraMax M5 plate reader. Luminescence was converted to total cAMP using a cAMP standard curve and data was analyzed by non-linear regression to determine the EC50 and Emax.
GLP-1(7-36): […]-NH2. GLP-1(9-36): […]-NH2. GLP-1(7-36) was purchased from GenScript. GLP-1(9-36) was purchased from Biopeptide Co., Inc.
On the technique in general: cAMP levels reflect the balance of adenylyl cyclase and phosphodiesterase activity.

T1 sequence (P43220 24-463): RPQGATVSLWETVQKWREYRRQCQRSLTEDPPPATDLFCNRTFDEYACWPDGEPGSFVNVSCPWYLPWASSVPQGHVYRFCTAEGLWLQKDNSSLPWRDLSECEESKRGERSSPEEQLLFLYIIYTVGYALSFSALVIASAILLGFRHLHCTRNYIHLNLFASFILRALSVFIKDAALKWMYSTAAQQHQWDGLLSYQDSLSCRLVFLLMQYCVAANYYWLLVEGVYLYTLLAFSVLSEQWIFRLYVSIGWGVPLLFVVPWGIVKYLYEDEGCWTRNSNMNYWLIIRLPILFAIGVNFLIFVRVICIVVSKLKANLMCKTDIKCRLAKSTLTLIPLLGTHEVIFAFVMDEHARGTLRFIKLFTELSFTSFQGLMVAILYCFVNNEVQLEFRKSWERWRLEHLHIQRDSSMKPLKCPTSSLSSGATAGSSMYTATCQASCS
T1 sequence (P01275 100-127 partner limits assumed): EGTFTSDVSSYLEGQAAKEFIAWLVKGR

Regarding `CC(C)(C)c1ccc(C(=O)N[C@@H](Cc2ccc(-c3noc(-c4ccc(S(C)(=O)=O)cc4)n3)cc2)C(=O)O)cc1` [Compound 41], the pEC50 is 5.30 to 5.60.

Regarding `CCSc1ccc(-c2nc(-c3ccc(C[C@H](NC(=O)c4ccc(C(C)(C)C)cc4)C(=O)O)cc3)no2)cc1` [Compound 42], the negative logarithm of the EC50 (pEC50) is 5.30 to 5.60.

`CC(C)(C)c1ccc(C(=O)N[C@@H](Cc2ccc(-c3noc(-c4ccc(O)cc4)n3)cc2)C(=O)O)cc1` [Compound 43]: the pEC50 is 5.30 to 5.60.

In the case of `CC(=O)Nc1ccc(-c2nc(-c3ccc(C[C@H](NC(=O)c4ccc(C(C)(C)C)cc4)C(=O)O)cc3)no2)cc1` [Compound 44], the pEC50 is 5.30 to 5.60.

Take `CC(=O)c1ccc(-c2nc(-c3ccc(C[C@H](NC(=O)c4ccc(C(C)(C)C)cc4)C(=O)O)cc3)no2)cc1` [Compound 45]: the pEC50 is 5.60 to 6.10.

For `CCCc1ccc(-c2nc(-c3ccc(C[C@H](NC(=O)c4ccc(C(C)(C)C)cc4)C(=O)O)cc3)no2)cc1` [Compound 46], the pEC50 was 5.60 to 6.10.

With `CN(C)c1ccc(-c2nc(-c3ccc(C[C@H](NC(=O)c4ccc(C(C)(C)C)cc4)C(=O)O)cc3)no2)cc1` [Compound 47], the pEC50 was 5.30 to 5.60.

`CCN(CC)c1ccc(-c2nc(-c3ccc(C[C@H](NC(=O)c4ccc(C(C)(C)C)cc4)C(=O)O)cc3)no2)cc1` [Compound 48]: the pEC50 was 5.00 to 5.30.

Take `Cn1ccc2c(-c3nc(-c4ccc(C[C@H](NC(=O)c5ccc(C(C)(C)C)cc5)C(=O)O)cc4)no3)cccc21` [Compound 49]: the negative logarithm of the EC50 (pEC50) is 5.00 to 5.30.

For `Cn1ccc2cc(-c3nc(-c4ccc(C[C@H](NC(=O)c5ccc(C(C)(C)C)cc5)C(=O)O)cc4)no3)ccc21` [Compound 50], the negative logarithm of the EC50 (pEC50) is 5.30 to 5.60.

As for `CCCCCCCOc1ccc(-c2nc(-c3ccc(C[C@H](NC(=O)c4ccc(C(C)(C)C)cc4)C(=O)O)cc3)no2)cn1` [Compound 51], the pEC50 is 5.30 to 5.60.

For `CN1CCCc2c(-c3nc(-c4ccc(C[C@H](NC(=O)c5ccc(C(C)(C)C)cc5)C(=O)O)cc4)no3)cccc21` [Compound 52], the pEC50 is 5.60 to 6.10.

With `CN(C)c1cccc(-c2nc(-c3ccc(C[C@H](NC(=O)c4ccc(C(C)(C)C)cc4)C(=O)O)cc3)no2)c1` [Compound 53], the negative logarithm of the EC50 (pEC50) is 5.30 to 5.60.

On to `CC(C)(C)c1ccc(C(=O)N[C@@H](Cc2ccc(-c3noc(-c4ccc(S(N)(=O)=O)cc4)n3)cc2)C(=O)O)cc1` [Compound 54], for which the pEC50 was 5.30 to 5.60.

With `CN(CCO)c1ccc(-c2nc(-c3ccc(C[C@H](NC(=O)c4ccc(C(C)(C)C)cc4)C(=O)O)cc3)no2)cc1` [Compound 55], the pEC50 was 5.30 to 5.60.

Take `CC(C)(C)Oc1ccc(-c2nc(-c3ccc(C[C@H](NC(=O)c4ccc(C(C)(C)C)cc4)C(=O)O)cc3)no2)cc1` [Compound 56]: the pEC50 was 5.30 to 5.60.

As for `Cc1cc(C)cc(-c2nc(-c3ccc(C[C@H](NC(=O)c4ccc(C(C)(C)C)cc4)C(=O)O)cc3)no2)c1` [Compound 57], the pEC50 was 5.30 to 5.60.

As to `Cc1ccc(-c2nc(-c3ccc(C[C@H](NC(=O)c4ccc(C(C)(C)C)cc4)C(=O)O)cc3)no2)cc1C` [Compound 58], the pEC50 is 5.30 to 5.60.

For the molecule `CC(C)Sc1ccc(-c2nc(-c3ccc(C[C@H](NC(=O)c4ccc(C(C)(C)C)cc4)C(=O)O)cc3)no2)cc1` [Compound 59], the pEC50 is 5.30 to 5.60.

In the case of `CC(C)(C)c1ccc(C(=O)N[C@@H](Cc2ccc(-c3noc(-c4ccc5ccccc5c4)n3)cc2)C(=O)O)cc1` [Compound 60], the pEC50 was 5.30 to 5.60.

Regarding `CC(C)(C)c1ccc(C(=O)N[C@@H](Cc2ccc(-c3noc(-c4ccc(C(N)=O)cc4)n3)cc2)C(=O)O)cc1` [Compound 61], the pEC50 is 5.30 to 5.60.

Regarding `CC(C)(C)c1ccc(C(=O)N[C@@H](Cc2ccc(-c3noc(-c4ccc(N)cc4)n3)cc2)C(=O)O)cc1` [Compound 62], the pEC50 is 5.30 to 5.60.

`CNc1ccc(-c2nc(-c3ccc(C[C@H](NC(=O)c4ccc(C(C)(C)C)cc4)C(=O)O)cc3)no2)cc1` [Compound 63]: the pEC50 is 5.60 to 6.10.

For `CC(C)(C)c1ccc(C(=O)N[C@@H](Cc2ccc(-c3noc(-c4ccc5[nH]ccc5c4)n3)cc2)C(=O)O)cc1` [Compound 64], the negative logarithm of the EC50 (pEC50) was 5.60 to 6.10.

Regarding `CC(C)Nc1ccc(-c2nc(-c3ccc(C[C@H](NC(=O)c4ccc(C(C)(C)C)cc4)C(=O)O)cc3)no2)cc1` [Compound 65], the pEC50 is 5.30 to 5.60.

As for `CC(C)(C)c1ccc(C(=O)N[C@@H](Cc2ccc(-c3noc(-c4cccc5c4CCNC5)n3)cc2)C(=O)O)cc1` [Compound 66], the pEC50 is 5.30 to 5.60.

`CCCCCCCOc1ccc(-c2nc(-c3ccc(C[C@H](NC(=O)c4ccc(C(C)(C)C)cc4)C(=O)NCC(=O)O)cc3)no2)cc1` [Compound 67, (S)-2-(2-(4-(tert-butyl)benzamido)-3-(4-(5-(4-(heptyloxy)phenyl)-1,2,4-oxadiazol-3-yl)phenyl)propanamido)acetic acid]: the pEC50 is 5.60 to 6.10.

With `CC(C)(C)c1ccc(C(=O)N[C@@H](Cc2ccc(-c3noc(-c4ccc(N5CCCCC5)cc4)n3)cc2)C(=O)NCC(=O)O)cc1` [Compound 68], the pEC50 was 5.30 to 5.60.

As for `CCCCCCCOc1ccc(-c2nc(-c3ccc(C[C@H](NC(=O)c4ccc(C(C)(C)C)cc4)C(=O)NS(C)(=O)=O)cc3)no2)cc1` [Compound 69], the pEC50 is 5.00 to 5.30.

In the case of `CCCCCCCOc1ccc(-c2nc(-c3ccc(C[C@H](NC(=O)c4ccc(C(C)(C)C)cc4)C(=O)NC(C)(C)C(=O)O)cc3)no2)cc1` [Compound 70], the negative logarithm of the EC50 (pEC50) was 5.00 to 5.30.

Turning to `CCCCCCCOc1ccc(-c2nc(-c3ccc(C(NC(=O)c4ccc(C(C)(C)C)cc4)C(=O)O)cc3)no2)cc1` (centres unmarked) [Compound 71], the negative logarithm of the EC50 (pEC50) is 5.30 to 5.60.

Turning to `CC(C)(C)c1ccc(C(=O)NC(C(=O)O)c2ccc(-c3noc(-c4ccc(N5CCCCC5)cc4)n3)cc2)cc1` (centres unmarked) [Compound 72], the pEC50 was 5.00 to 5.30.

On to `CCCCCCCOc1ccc(-c2nc(-c3ccc(CC[C@H](NC(=O)c4ccc(C(C)(C)C)cc4)C(=O)O)cc3)no2)cc1` [Compound 73], for which the pEC50 is 5.60 to 6.10.

As to `CC(C)(C)c1ccc(C(=O)N[C@@H](CCc2ccc(-c3noc(-c4ccc(N5CCCCC5)cc4)n3)cc2)C(=O)O)cc1` [Compound 74], the pEC50 was 5.30 to 5.60.

`CC(C)(C)c1ccc(C(=O)N[C@H](CC(=O)O)Cc2ccc(-c3noc(-c4ccc(N5CCCCC5)cc4)n3)cc2)cc1` [Compound 75]: the pEC50 was 5.30 to 5.60.

Take `CCCCCCCOc1ccc(-c2nnc(-c3ccc(C[C@H](NC(=O)c4ccc(C(C)(C)C)cc4)C(=O)O)cc3)o2)cc1` [Compound 76]: the negative logarithm of the EC50 (pEC50) was 5.60 to 6.10.

Consider `CCCCCCCOc1ccc(-c2coc(-c3ccc(C[C@H](NC(=O)c4ccc(C(C)(C)C)cc4)C(=O)O)cc3)n2)cc1` [Compound 77], for which the pEC50 is 5.60 to 6.10.

In the case of `CCCCCCCOc1ccc(-c2nc(-c3ccc(C[C@H](NC(=O)c4ccc(C(C)(C)C)cc4)C(=O)O)cc3)co2)cc1` [Compound 78], the pEC50 was 5.60 to 6.10.

Regarding `CCCCCCCOc1ccc(-c2csc(-c3ccc(C[C@H](NC(=O)c4ccc(C(C)(C)C)cc4)C(=O)O)cc3)n2)cc1` [Compound 79], the pEC50 was 5.60 to 6.10.

On to `CCCCCCCOc1ccc(-c2nc(-c3ccc(C[C@H](NC(=O)c4ccc(C(C)(C)C)cc4)C(=O)O)cc3)cs2)cc1` [Compound 80], for which the pEC50 is 5.60 to 6.10.

Turning to `CCCCCCCOc1ccc(-c2cnc(-c3ccc(CC(NC(=O)c4ccc(C(C)(C)C)cc4)C(=O)O)cc3)s2)cc1` (centres unmarked) [Compound 81], the pEC50 was 5.00 to 5.30.

Take `CCCCCCCOc1ccc(-c2ncc(-c3ccc(CC(NC(=O)c4ccc(C(C)(C)C)cc4)C(=O)O)cc3)s2)cc1` (centres unmarked) [Compound 82]: the pEC50 is 5.60 to 6.10.

As to `CCCCCCCOc1ccc(-c2nnc(-c3ccc(C[C@H](NC(=O)c4ccc(C(C)(C)C)cc4)C(=O)O)cc3)s2)cc1` [Compound 83], the pEC50 is 5.60 to 6.10.

As for `CCCCCCCOc1ccc(-c2nc(-c3ccc(C[C@H](NC(=O)c4ccc(C(C)(C)C)cc4)C(=O)O)cc3)ns2)cc1` [Compound 84], the pEC50 is 5.60 to 6.10.

With `CCCCCCCOc1ccc(-c2cnc(-c3ccc(C[C@H](NC(=O)c4ccc(C(C)(C)C)cc4)C(=O)O)cc3)nc2)cc1` [Compound 85, (S)-2-(4-(tert-butyl)benzamido)-3-(4-(5-(4-(heptyloxy)phenyl)pyrimidin-2-yl)phenyl)propanoic acid], the pEC50 was 5.60 to 6.10.

With `CCCCCCCOc1ccc(-c2cnc(-c3ccc(C[C@H](NC(=O)c4ccc(OC)cc4)C(=O)O)cc3)nc2)cc1` [Compound 86], the pEC50 was 5.60 to 6.10.

With `CCCCCCCOc1ccc(-c2cnc(-c3ccc(C[C@H](NC(=O)c4ccc(Cl)cc4)C(=O)O)cc3)nc2)cc1` [Compound 87], the pEC50 is 5.60 to 6.10.

For the molecule `CCCCCCCOc1ccc(-c2cnc(-c3ccc(C[C@H](NC(=O)Cc4ccccc4)C(=O)O)cc3)nc2)cc1` [Compound 88], the pEC50 was 5.00 to 5.30.

As to `CCCCCCCOc1ccc(-c2cnc(-c3ccc(C[C@H](NC(=O)c4ccc(CC)cc4)C(=O)O)cc3)nc2)cc1` [Compound 89], the pEC50 was 5.60 to 6.10.

`CCCCCCCOc1ccc(-c2cnc(-c3ccc(C[C@H](NC(=O)c4ccc(N5CCCC5)cc4)C(=O)O)cc3)nc2)cc1` [Compound 90]: the pEC50 is 5.30 to 5.60.
